US11084826B2, “RSV antiviral pyrazolo- and triazolo-pyrimidine compounds” (Janssen Sciences Ireland Unlimited Company, priority 2015, dated 2021)

Assays:
[1] = Cytotoxicity in HeLa cells, ATP content measured with the ATPlite kit; assay type: cell-based; conditions: human, TOX HELA pCC50
rgRSV224 virus = assay: Antiviral activity: inhibition of rgRSV224 (GFP-expressing RSV) replication in HeLa cells, GFP expression read-out; assay type: cell-based, respiratory syncytial virus (RSV); conditions: human respiratory syncytial virus, HeLa, read-out: RSV HELA pEC50, rgRSV224 virus (MOI=1) in HeLa cells, GFP read-out (converted)
In short: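 EC50 is the 50% inhibitory concentration for GFP expression, read by laser microscopy three days after rgRSV224 infection (MOI=1) of HeLa cells (3,000/well). Compounds were tested as 9 serial 4-fold dilutions at 0.05% DMSO, and cells were incubated at 37° C under 5% CO2.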

Q: Which results are given for `CC1c2ccccc2CCN1C(=O)c1cc(N(C)C)n2nc(-c3ccc(/C=C/C(=O)O)cc3F)cc2n1` (stereo not drawn) [Compound M10]?
A: melting point: 243 to 245 °C; CC50 at 3 days [1]: 20000 nM; EC50 (rgRSV224 virus): 47.9 nM

Q: Which melting point does the source give for `CCc1cc(C(=O)N2CCc3ccccc3C2C)nc2cc(-c3ccc(/C=C/C(=O)O)cc3F)nn12` (stereo not drawn) [Compound M11] here?
A: 225 to 230 °C

Q: What about the CC50 at 3 days [1] of the same compound?
A: > 25100 nM

Q: What about the EC50 (rgRSV224 virus) of the same compound?
A: 38 nM

Q: Which melting point does the source give for `C[C@@H]1CCCCCN1C(=O)c1cc(N(C)C)n2nc(-c3ncc(/C=C/C(=O)O)cc3Cl)cc2n1` [Compound M12] here?
A: 197 to 199 °C

Q: And the CC50 at 3 days [1]?
A: > 25100 nM

Q: And the EC50 (rgRSV224 virus)?
A: 4070 nM

Q: What does the source list for `C[C@@H]1CCCCCN1C(=O)c1cc(C2(C)CC2)n2nc(-c3ccc(/C=C/C(=O)O)cc3F)cc2n1` [Compound M20]?
A: melting point: 228.12 °C; CC50 at 3 days [1]: 36300 nM; EC50 (rgRSV224 virus): 32.4 nM

Q: Which melting point does the source give for `C[C@@H]1CCCCCN1C(=O)c1cc(C2CCC2)n2nc(-c3cccc(/C=C/C(=O)O)c3F)cc2n1` [Compound M23] here?
A: 231.54 °C

Q: What about the CC50 at 3 days [1] of the same compound?
A: > 100000 nM

Q: And the EC50 (rgRSV224 virus)?
A: 44.7 nM

Q: What does the source list for `CCOc1cc(C(=O)N2CCCCC[C@H]2C)nc2cc(-c3ccc(/C=C/C(=O)O)cc3F)nn12` [Compound M24]?
A: melting point: 213.66 °C; CC50 at 3 days [1]: > 100000 nM; EC50 (rgRSV224 virus): 380 nM

Q: For `CC(C)Cc1cc(C(=O)N2CCCCC[C@H]2C)nc2cc(-c3cccc(/C=C/C(=O)O)c3F)nn12` [Compound M29], which melting point is on record?
A: 176 °C

Q: What about the CC50 at 3 days [1] of the same compound?
A: 67600 nM

Q: What about the EC50 (rgRSV224 virus) of the same compound?
A: 38.9 nM

Q: With `C[C@@H]1CCCCCN1C(=O)c1cc(-c2cnn(C)c2)n2nc(-c3ccc(/C=C/C(=O)O)cc3F)cc2n1` [Compound M30] as the compound, how does the melting point read?
A: 163 °C

Q: What about the CC50 at 3 days [1] of the same compound?
A: 28200 nM

Q: What about the EC50 (rgRSV224 virus) of the same compound?
A: 40.7 nM

Q: Which results are given for `CCc1cc(C(=O)N2CCn3nccc3C2C)nc2cc(-c3ccc(/C=C/C(=O)O)cc3F)nn12` (stereo not drawn) [Compound M41]?
A: melting point: 225 to 230 °C; CC50 at 3 days [1]: > 25100 nM; EC50 (rgRSV224 virus): 794 nM

Q: Which results are given for `CCc1cc(C(=O)N2CCn3c(C)ccc3C2C)nc2cc(-c3ccc(/C=C/C(=O)O)cc3F)nn12` (stereo not drawn) [Compound M42]?
A: melting point: 240 to 245 °C; CC50 at 3 days [1]: > 25100 nM; EC50 (rgRSV224 virus): 191 nM

Q: With `CCc1cc(C(=O)N2CCn3cccc3C2C)nc2cc(-c3ccc(/C=C/C(=O)O)cc3F)nn12` (stereo not drawn) [Compound M43] as the compound, how does the melting point read?
A: 255 to 260 °C

Q: And the CC50 at 3 days [1]?
A: > 25100 nM

Q: And the EC50 (rgRSV224 virus)?
A: 47.9 nM

Q: For `CC1c2ccsc2CCN1C(=O)c1cc(C2CC2)n2nc(-c3cccc(/C=C/C(=O)O)c3F)cc2n1` (stereo not drawn) [Compound M46], which melting point is on record?
A: 265.43 °C

Q: What about the CC50 at 3 days [1] of the same compound?
A: 67600 nM

Q: And the EC50 (rgRSV224 virus)?
A: 5.01 nM

Q: For `CCc1cc(C(=O)N2CCCCCC2C)nc2cc(-c3ccc(/C=C/C(N)=O)cc3F)nn12` (stereo not drawn) [Compound N1], which melting point is on record?
A: 140 to 145 °C

Q: What about the CC50 at 3 days [1] of the same compound?
A: > 25100 nM

Q: What about the EC50 (rgRSV224 virus) of the same compound?
A: 129 nM

Q: Which results are given for `C[C@@H]1c2ccsc2CCN1C(=O)c1cc(C2(C)CC2)n2nc(-c3ccc([C@@H]4C[C@H]4C(=O)O)cc3F)cc2n1` [Compound O21]?
A: melting point: 207.61 °C; CC50 at 3 days [1]: 55000 nM; EC50 (rgRSV224 virus): 11 nM

Q: Which melting point does the source give for `CCc1cc(C(=O)N2CCCCCC2C)nc2cc(-c3ccc(S(=O)(=O)N(C)C)cc3F)nn12` (stereo not drawn) [Compound P1] here?
A: 120 °C

Q: What about the CC50 at 3 days [1] of the same compound?
A: > 25100 nM

Q: What about the EC50 (rgRSV224 virus) of the same compound?
A: 2820 nM

Q: What does the source list for `CCc1cc(C(=O)N2CCCCCC2C)nc2cc(-c3ccc(S(N)(=O)=O)cc3F)nn12` (stereo not drawn) [Compound P2]?
A: melting point: 229 °C; CC50 at 3 days [1]: > 25100 nM; EC50 (rgRSV224 virus): 646 nM

Q: For `CCc1cc(C(=O)N2CCCCCC2C)nc2cc(-c3ccc(S(=O)(=O)NC)cc3F)nn12` (stereo not drawn) [Compound P3], which melting point is on record?
A: 116 °C

Q: What about the CC50 at 3 days [1] of the same compound?
A: > 25100 nM

Q: And the EC50 (rgRSV224 virus)?
A: 692 nM

Q: Which melting point does the source give for `CCc1cc(C(=O)N2CCCCCC2C)nc2cc(-c3ccc(CCC(=O)O)cc3F)nn12` (stereo not drawn) [Compound Q1] here?
A: 125 to 130 °C

Q: What about the CC50 at 3 days [1] of the same compound?
A: > 25100 nM

Q: And the EC50 (rgRSV224 virus)?
A: 537 nM

Q: With `CCc1cc(C(=O)N2CCCCCC2C)nc2cc(-c3ccc(CCC(N)=O)cc3F)nn12` (stereo not drawn) [Compound R1] as the compound, how does the melting point read?
A: 95 to 100 °C

Q: And the CC50 at 3 days [1]?
A: > 25100 nM

Q: And the EC50 (rgRSV224 virus)?
A: 251 nM

Q: For `CCc1cc(C(=O)N2CCCCCC2C)nc2nc(-c3ccc(NC(=O)C4CC4)cc3F)nn12` (stereo not drawn) [Compound T1], which melting point is on record?
A: 210 to 215 °C

Q: What about the CC50 at 3 days [1] of the same compound?
A: > 100000 nM

Q: What about the EC50 (rgRSV224 virus) of the same compound?
A: 550 nM

Q: Which melting point does the source give for `CCc1cc(C(=O)N2CCCCCC2C)nc2nc(-c3ccc(NC(=O)NCC4CCCO4)cc3F)nn12` (stereo not drawn) [Compound U1] here?
A: 185 to 190 °C

Q: What about the CC50 at 3 days [1] of the same compound?
A: > 100000 nM

Q: And the EC50 (rgRSV224 virus)?
A: 525 nM

Q: What does the source list for `CCc1cc(C(=O)N2CCCCCC2C)nc2nc(-c3ccc(C(N)=O)cc3F)nn12` (stereo not drawn) [Compound V1]?
A: melting point: 215 to 220 °C; CC50 at 3 days [1]: > 25100 nM; EC50 (rgRSV224 virus): 1910 nM

Q: For `CCc1cc(C(=O)N2CCCCC[C@H]2C)nc2cc(-c3ccc(-n4ccc(C(=O)O)n4)cc3F)nn12` [Compound W3], which melting point is on record?
A: 207.63 °C

Q: What about the CC50 at 3 days [1] of the same compound?
A: 60300 nM

Q: What about the EC50 (rgRSV224 virus) of the same compound?
A: 107 nM

Q: Which results are given for `CCc1cc(C(=O)N2CCCCC[C@H]2C)nc2cc(-c3ccc(N4CC[C@@H](C(=O)O)C4)cc3F)nn12` [Compound W6]?
A: melting point: 214.84 °C; CC50 at 3 days [1]: 69200 nM; EC50 (rgRSV224 virus): 81.3 nM

Q: With `CCc1cc(C(=O)N2CCCCC[C@H]2C)nc2cc(-c3ccc(N4CC[C@H](C(=O)O)C4)cc3F)nn12` [Compound W7] as the compound, how does the melting point read?
A: 205.8 °C

Q: What about the CC50 at 3 days [1] of the same compound?
A: 70800 nM

Q: What about the EC50 (rgRSV224 virus) of the same compound?
A: 47.9 nM

Q: Which results are given for `C[C@@H]1CCCCCN1C(=O)c1cc(C2CC2)n2nc(-c3ccc(-n4cc(C(=O)O)cn4)cc3F)cc2n1` [Compound W8]?
A: melting point: 232.32 °C; CC50 at 3 days [1]: 55000 nM; EC50 (rgRSV224 virus): 77.6 nM

Q: With `C[C@@H]1CCCCCN1C(=O)c1cc(C2CCC2)n2nc(-c3ccc(-n4cc(C(=O)O)cn4)cc3F)cc2n1` [Compound W9] as the compound, how does the melting point read?
A: 142.16 °C

Q: And the CC50 at 3 days [1]?
A: 51300 nM

Q: And the EC50 (rgRSV224 virus)?
A: 46.8 nM

Q: For `C[C@@H]1CCCCCN1C(=O)c1cc(C2(C)CC2)n2nc(-c3ccc(-n4cc(C(=O)O)cn4)cc3F)cc2n1` [Compound W10], which melting point is on record?
A: 239.85 °C

Q: And the CC50 at 3 days [1]?
A: 52500 nM

Q: And the EC50 (rgRSV224 virus)?
A: 30.9 nM

Q: Which results are given for `CCc1cc(C(=O)N2CCCCC[C@H]2C)nc2cc(-c3ccc(N4CC=C(C(=O)O)CC4)cc3F)nn12` [Compound W11]?
A: melting point: 277.45 °C; CC50 at 3 days [1]: 58900 nM; EC50 (rgRSV224 virus): 234 nM

Q: For `CCc1cc(C(=O)N2CCCCC[C@H]2C)nc2cc(-c3ccc(N4C[C@@H]5CC(C(=O)O)=C[C@@H]5C4)cc3F)nn12` [Compound W12], which melting point is on record?
A: 252.19 °C

Q: What about the CC50 at 3 days [1] of the same compound?
A: 63100 nM

Q: And the EC50 (rgRSV224 virus)?
A: 204 nM

Q: Which melting point does the source give for `CC(C)=Cc1cc(C(=O)N2CCCCC[C@H]2C)nc2cc(-c3ccc(N4CC[C@H](C(=O)O)C4)cc3F)nn12` [Compound W15] here?
A: 189.89 °C

Q: What about the CC50 at 3 days [1] of the same compound?
A: 57500 nM

Q: What about the EC50 (rgRSV224 virus) of the same compound?
A: 51.3 nM

Q: With `CCc1cc(C(=O)N2CCCCC[C@H]2C)nc2cc(-c3ccc(N4CCC(C)(C(=O)O)C4)cc3F)nn12` (stereo partly drawn) [Compound W17] as the compound, how does the melting point read?
A: 172.28 °C

Q: And the CC50 at 3 days [1]?
A: 58900 nM

Q: And the EC50 (rgRSV224 virus)?
A: 21.9 nM

Q: Which melting point does the source give for `CCc1cc(C(=O)N2CCCCC[C@H]2C)nc2cc(-c3ccc(N4CCC(CO)(C(=O)O)C4)cc3F)nn12` (stereo partly drawn) [Compound W18] here?
A: 276.58 °C

Q: And the CC50 at 3 days [1]?
A: > 100000 nM

Q: What about the EC50 (rgRSV224 virus) of the same compound?
A: 81.3 nM

Q: With `C[C@@H]1c2ccccc2CCN1C(=O)c1cc(C2(C)CC2)n2nc(-c3ccc(-n4cc(C(=O)O)cn4)cc3F)cc2n1` [Compound W26] as the compound, how does the melting point read?
A: 238.58 °C

Q: What about the CC50 at 3 days [1] of the same compound?
A: > 100000 nM

Q: What about the EC50 (rgRSV224 virus) of the same compound?
A: 23.4 nM

Q: What does the source list for `CCc1cc(C(=O)N2CCc3ccccc3[C@H]2C)nc2cc(-c3ccc(-n4cc(C(=O)O)cn4)cc3F)nn12` [Compound W27]?
A: melting point: 144.43 °C; CC50 at 3 days [1]: 46800 nM; EC50 (rgRSV224 virus): 39.8 nM
